Laboratory results published in publication PMC3723878 (PLoS ONE, 2013).

Columns and labels:
α1A-AR [1] = biological target: T1, α1A-AR (Homo sapiens, UniProt P35348); type: binding; set-up: expressed in transfected cells; host or cells: COS-7, transient (calcium phosphate); conditions: ^125I-HEAT 0.4 nM, HEAT 5 µM alone
T1 sequence (P35348 1-466): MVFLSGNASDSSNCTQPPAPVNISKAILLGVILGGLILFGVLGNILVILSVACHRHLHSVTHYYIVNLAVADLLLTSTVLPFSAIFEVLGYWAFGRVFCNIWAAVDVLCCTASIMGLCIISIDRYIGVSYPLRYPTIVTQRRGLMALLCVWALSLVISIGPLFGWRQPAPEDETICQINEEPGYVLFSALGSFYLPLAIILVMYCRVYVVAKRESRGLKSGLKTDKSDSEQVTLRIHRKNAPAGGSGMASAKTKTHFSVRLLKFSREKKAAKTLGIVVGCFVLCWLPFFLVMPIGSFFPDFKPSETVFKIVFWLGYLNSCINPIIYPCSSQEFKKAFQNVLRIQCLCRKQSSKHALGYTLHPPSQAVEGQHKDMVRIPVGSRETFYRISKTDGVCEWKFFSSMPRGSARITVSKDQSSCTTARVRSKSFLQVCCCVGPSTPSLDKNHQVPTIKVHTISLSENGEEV
Procedure: Binding experiments were performed in a 100 µL reaction mix at room temperature in buffer composed of 50 mM Tris-HCl, pH 7.4, 10 mM MgCl2, 1 g/L BSA. Reactions were stopped by filtration through 96 GF/C filter plates pre-incubated with 0.5% polyethylenimine.
Binding data were analyzed by nonlinear regression using the KaleidaGraph 4.0 software (Synergy software, Reading, PA). pKD values and Bmax (number of binding sites) were determined by applying a nonlinear regression to data obtained with saturation binding assays. The nonlinear regression used was BS = (Bmax*A)/KD+A, where BS is the specific binding, Bmax the number of binding sites, A the concentration of radioligand, and KD the dissociation constant of the radioligand. Data resulting from competition binding assays were analyzed using the Hill equation for IC50 and curve slope estimations. […] The linear curves were analyzed with IC50 = Ki+(L/KD)*Ki. Dissociation kinetics were analyzed using a simple equation of exponential decay BS * exp (-Koff*t), where BS is the specific binding at time zero and Koff is the dissociation rate constant. Results are expressed as mean ± s.e. mean from n independent experiments. One-way Anova test was used to compare values. A p<0.05 was accepted for statistical significance.

α1A-AR [2] = biological target: T1, α1A-AR; set-up: expressed in transfected cells; method as in PMID 20978120; conditions: CHO cells used for Ca^2+ release experiments; cited from earlier work

Question: What does the source list for `O=C1c2ccccc2CCC1CNCCc1ccc(O)c([125I])c1` (centres unmarked) [125I-HEAT]?
Answer: ^125I-HEAT dissociation rate (Koff) (α1A-AR [1]): 0.062 min⁻¹; pKD (α1A-AR [2]): 9.2±0.09
